Results reported in US6309630A, “Non-steroidal anti-inflammatory ophthalmic suspensions” (Insite Vision Incorporated, priority 1994, dated 2001).

Experiment: Percent Diclofenac Sodium in Suspension (dependence on concentration and pH)
Type: physicochemical
Conditions: below a pH of about 6.8; formulation containing 1% diclofenac sodium
Text: The solubility of non-steroidal anti-inflammatory agents is pH dependent, i.e., normally the higher the pH, the higher the solubility of the drug in the formulation. […] Formulating the composition as a suspension rather than as a solution inhibits immediate contact between the drug and tissues of the eye and in that way reduces the stinging and burning sensation experienced when a solution of such drugs places all of the drug in immediate contact with the ocular tissues.
Thus, by providing at least some of the diclofenac in suspension, via pH control, lower transient burning and stinging would be observed when administered to patients.

SMILES: O=C(O)Cc1ccccc1Nc1c(Cl)cccc1Cl [Diclofenac Sodium, sodium ortho-(2,6-dichlorophenyl)aminophenylacetate acid]
- diclofenac in suspension (in words): virtually all of the diclofenac in suspension
